The results in this text go back to patent US11852634B2, “Use of AKT phosphorylation as a biomarker for prognosing neurodegenerative diseases and treating same” (Yeda Research and Development Co. Ltd., priority 2011, dated 2023).

Where no end group is shown, it is not given here.

The subject of the data set is healthy mice. Kind of data set: Repeated-dose safety in healthy mice. The format is in vivo. The conditions noted are these: dose four times higher than the effective dose, daily, for 28 days. An excerpt:
Accordingly, the peptide of the invention is suitable for chronic use. In addition, the peptide of the invention was shown effective when administered intravenously (IV), intraperitoneally (IP) or in combination of these two modes of delivery.

As to LPPLPYP [SEQ ID NO: 1, LPPLPYP], the Side effects result is on record as “did not initiate any detectable side effect”.
